Test results taken from US20240245677A1, “SELECTED COMPOUNDS FOR TARGETED DEGRADATION OF BRD9” (C4 THERAPEUTICS, INC., priority 2021, published 2024).
Where two headings read alike, the source gives them in different places.

Target: T1, BRD9 (Homo sapiens, UniProt Q9H8M2)
T1 sequence (Q9H8M2 1-597): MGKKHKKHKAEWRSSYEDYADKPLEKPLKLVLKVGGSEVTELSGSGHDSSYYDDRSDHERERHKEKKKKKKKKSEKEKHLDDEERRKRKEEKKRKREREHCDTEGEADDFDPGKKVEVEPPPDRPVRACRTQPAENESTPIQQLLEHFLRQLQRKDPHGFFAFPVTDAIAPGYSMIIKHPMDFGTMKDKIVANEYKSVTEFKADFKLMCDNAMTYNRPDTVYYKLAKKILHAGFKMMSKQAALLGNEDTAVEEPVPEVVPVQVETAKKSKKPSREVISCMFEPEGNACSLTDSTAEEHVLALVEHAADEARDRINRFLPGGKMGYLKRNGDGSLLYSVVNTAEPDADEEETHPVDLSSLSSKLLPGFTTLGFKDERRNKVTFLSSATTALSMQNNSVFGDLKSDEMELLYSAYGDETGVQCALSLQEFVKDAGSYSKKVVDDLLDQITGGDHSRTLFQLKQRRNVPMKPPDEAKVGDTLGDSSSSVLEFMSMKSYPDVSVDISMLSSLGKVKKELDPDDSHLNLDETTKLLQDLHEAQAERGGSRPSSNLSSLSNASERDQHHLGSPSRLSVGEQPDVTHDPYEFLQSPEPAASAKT
Experiment: BRD9 HiBiT degradation assay in 293T.166 (HEK293T.166) cells
Assay type: cell-based
Set-up: endogenously expressing BRD9 with HiBiT fusion tag via CRISPR; host or cells: HEK293T.166 (293T.166, BRD9-HiBiT HEK293, LgBiT by lentivirus)
Experimental: Selected compounds were tested in a BRD9 degradation assay using the HiBit Method.
Dulbecco's modified Eagle medium (DMEM) without phenol red and fetal bovine serum (FBS) were purchased from Gibco (Grand Island, NY, USA). Nano-Glo® HiBiT Lytic Assay System was purchased from Promega (Madison, WI, USA). 293T.166 (BRD9-HiBiT) cell line, endogenously expressing BRD9 with HiBiT fusion tag via CRISPR and ectopically expressing LgBiT tag, was purchased from Promega (Madison, WI, USA). 293T.167 (BRD7-HiBiT) cell line, endogenously expressing BRD7 with HiBiT fusion tag via CRISPR and ectopically expressing LgBiT tag, was purchased from Promega (Madison, WI, USA). 293T.92 (BRD4-HiBiT) cell line, endogenously expressing BRD4 with HiBiT fusion tag via CRISPR and ectopically expressing LgBiT tag, was generated in-house. Cell culture flasks and 384-well microplates were acquired from VWR (Radnor, PA, USA).
BRD9 degradation was determined based on quantification of luminescent signal using Nano-Glo® HiBiT Lytic Assay kit. Test compounds were added to the 384-well plate from a top concentration of 10 μM with 11 points, half log titration in duplicates. 293T.166 cells were added into 384-well plates at a cell density of 10,000 cells per well. The plates were kept at 37° C. with 5% CO2 for 2 hours. BRD7 and BRD4 degradation was similarly determined with 293T.167 cells and 293T.92 cells, respectively. The cells treated in the absence of the test compound were the negative control and the cells without Nano-Glo® HiBiT Lytic reagent were the positive control. After 2-hour incubation, Nano-Glo® HiBiT Lytic Assay reagents were added to the cells. Luminescence was acquired on EnVision® Multilabel Reader (Catalog No. 2104-0010, Perkin Elmer Inc., Dumfries, VA, USA).
This assay evaluates the degradation of BRD9 induced by treatment with Compound 1 or Compound 2 as measured by luminescence using Nano-Glo® HiBiT Lytic Assay System in HEK293 cells CRISPR-edited to endogenously express HiBiT tagged BRD9 and exogenously express LgBiT protein.
Nano-Glo® HiBiT Lytic Assay System was purchased from Promega (Catalog No. N3050, Madison, WI, USA). BRD9-HiBiT HEK293 cells were purchased from Promega (Catalog No. CS302348, Madison, WI, USA). The cells were maintained in Dulbecco's modified Eagle medium (DMEM) without phenol red (Catalog No. 12430112, ThermoFisher Scientific, Waltham, MA, USA) supplemented with 10% fetal bovine serum (FBS) (Catalog No. 16000-044, Gibco, Grand Island, NY, USA) at 37° C. in an atmosphere of 5% CO2 in air. The HiBiT polypeptide tag was introduced into the C-terminus of the endogenous BRD9 locus by CRISPR-Cas9 and the LgBiT protein was introduced via Lentiviral infection to produce the modified HEK293T.166 cell line. The HiBiT polypeptide and LgBiT protein allow reconstitution of NanoBiT enzyme in the cells. The Nano-Glo® HiBiT Lytic Substrate was then added and activated by the NanoBiT enzyme following cell lysis to produce a luminescent signal that is directly proportional to the amount of HiBiT-tagged BRD9.
The HEK293T.166 cells were routinely sub-cultured to maintain cell density between 30-80% confluence, not to exceed 20 passages. Cells were washed with PBS pH 7.4 (Catalog No. 10010049, ThermoFisher Scientific, Waltham, MA, USA), trypsinized for 5 minutes at 37° C., and resuspended in fresh growth media without phenol red. An aliquot was diluted 2× with Trypan Blue solution 0.4% (Catalog No. 15250061, ThermoFisher Scientific, Waltham, MA, USA) and cell count determined. Cell concentration was adjusted with growth media without phenol red to 3.3×10^5 cells/mL.
Compound 1 or Compound 2 was prepared by dissolving neat compounds in DMSO (Catalog No. D8418, Sigma-Aldrich, Inc., St. Louis, MO, USA) to generate 10 mM stock solution and stored at −20° C. […]

**Q.** How did the “% BRD9 Remaining Relative to Vehicle Control at 2 hr, Mean” value (0.010 nM) turn out when `COc1cc(-c2cn(C)c(=O)c(C)c2C)cc(OC)c1CN1CC[C@H](N2CCN(c3ccc(N[C@H]4CCC(=O)NC4=O)cc3F)CC2)C(F)(F)C1` [Compound 1, (S)-3-((4-(4-((S)-1-(2,6-dimethoxy-4-(1,4,5-trimethyl-6-oxo-1,6-dihydropyridin-3-yl)benzyl)-3,3-difluoropiperidin-4-yl)piperazin-1-yl)-3-fluorophenyl)amino)-piperidine-2,6-dione] was run?
**A.** 92.3%

**Q.** What about the “% BRD9 Remaining Relative to Vehicle Control at 2 hr, Mean” value (0.032 nM) of the same molecule?
**A.** 96.4%

**Q.** What about the “% BRD9 Remaining Relative to Vehicle Control at 2 hr, Mean” value (0.100 nM) of the same molecule?
**A.** 91.6%

**Q.** What about the “% BRD9 Remaining Relative to Vehicle Control at 2 hr, Mean” value (0.315 nM) of the same molecule?
**A.** 86.4%

**Q.** And the “% BRD9 Remaining Relative to Vehicle Control at 2 hr, Mean” value (0.997 nM)?
**A.** 76.7%

**Q.** And the “% BRD9 Remaining Relative to Vehicle Control at 2 hr, Mean” value (3.15 nM)?
**A.** 51.6%

**Q.** What about the “% BRD9 Remaining Relative to Vehicle Control at 2 hr, Mean” value (10.0 nM) of the same molecule?
**A.** 21.7%

**Q.** And the “% BRD9 Remaining Relative to Vehicle Control at 2 hr, Mean” value (31.7 nM)?
**A.** 7.9%

**Q.** And the “% BRD9 Remaining Relative to Vehicle Control at 2 hr, Mean” value (100 nM)?
**A.** 5.0%

**Q.** What about the “% BRD9 Remaining Relative to Vehicle Control at 2 hr, Mean” value (316 nM) of the same molecule?
**A.** 5.7%

**Q.** And the “% BRD9 Remaining Relative to Vehicle Control at 2 hr, Mean” value (999 nM)?
**A.** 4.8%

**Q.** And the DC50 (293T.166 cells, 2.0 hours, read-out: HiBiT-Degradation 293T.166 BRD9 2.0 hours (DC50))?
**A.** < 100 nM

**Q.** And the Emax (BRD9-HiBiT, 293T.166 cells, 2 hours, read-out: Mean Emax (%) ± SD)?
**A.** 4.14 ± 1.15%

**Q.** What about the Dmax (HEK293T.166 cells, 2-hour treatment, read-out: maximal degradation of BRD9) of the same molecule?
**A.** > 95%

**Q.** And the DC50 (summary statement, read-out: DC50 against BRD9)?
**A.** 2 to 75 nM
